In patent US8530648B2, “Diaza-spiro[5.5]undecanes” (Novartis AG, priority 2009, dated 2013):

How the values were obtained:
hOx2R [1] = molecular target: T1, hOx2R (Homo sapiens (Human), UniProt O43614); assay: Calcium accumulation in cells (FLIPR), hOx2R; format: cell-based; settings: inhibition of orexin A induced calcium accumulation, Cheng and Prusoff correction
Summary of the method: (§1)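 Cells expressing human orexin 1 or 2 receptor, serum-deprived overnight, loaded with Fluo-4-AM (2 μM) plus 0.1 mM probenecid, pH 7.4 HEPES buffer with 1% BSA.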

hOx1R [2] = molecular target: T2, hOx1R (Homo sapiens (Human), UniProt O43613); assay: Radioligand binding assay, [125I]orexin A, hOx1R; settings: radioligand [125I]orexin A, competition
T2 sequence (O43613 whole entry): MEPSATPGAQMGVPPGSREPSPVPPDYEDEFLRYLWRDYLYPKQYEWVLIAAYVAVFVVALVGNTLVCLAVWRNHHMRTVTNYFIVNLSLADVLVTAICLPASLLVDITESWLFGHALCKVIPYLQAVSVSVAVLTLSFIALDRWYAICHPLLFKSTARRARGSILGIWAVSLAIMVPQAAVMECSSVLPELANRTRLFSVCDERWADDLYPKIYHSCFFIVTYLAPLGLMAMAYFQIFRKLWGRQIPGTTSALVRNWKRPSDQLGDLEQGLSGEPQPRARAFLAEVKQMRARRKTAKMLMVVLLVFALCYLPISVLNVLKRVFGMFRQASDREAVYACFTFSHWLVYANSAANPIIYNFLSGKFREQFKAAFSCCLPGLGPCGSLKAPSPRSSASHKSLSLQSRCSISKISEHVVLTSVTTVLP
Protocol: (§2) For crude cell membrane preparations, cells (CHO, Chinese hamster ovary or HEK, human embryonic kidney) expressing human orexin 1 or human orexin 2 receptors, were washed with HEPES (10 mM, pH 7.5), scraped off the culture plates with the same buffer, and centrifuged at 4° C. for 5 min at 2500×g. The cell pellet was either stored at −80° C. or used directly. Before the experiments, cell membranes were re-suspended in binding assay buffer (10 mM HEPES, 0.5% (w/v) bovine serum albumin, pH 7.5) by homogenisation with a Polytron homogeniser at 50 Hz for 20 s. Cell membranes were also used as made available by commercial providers.
(§3) In initial saturation experiments (to calculate Bmax), cell homogenates (150 μl) were incubated with 25-300 pM of the radioligand ([^125I]orexin A, 50 μl), 8 concentrations in triplicates in the presence or absence Orexin A (1 μM, 50 μl) to define non specific binding. Bound radioactivity was measured, and data were analysed with the program XLFIT or Graphpad Prism. Protein concentration was determined according to the Bradford/BioRad Protein Assay Kit.
(§4) In competition experiments, cell homogenates (150 μl) were incubated in assay buffer (10 mM HEPES, pH 7.5, 0.5% (w/v) bovine serum albumin, 5 mM MgCl2, 1 mM CaCl2, and tween 0.05%) for 1 h at room temperature with about 100 pM of the radioligand ([^125I]orexin A, 2100 Ci/mmole, 50 μl), and with various concentrations of compounds of the invention (50 μl) in triplicates; non-specific binding was determined in the presence of Orexin A (1 μM). Reactions were terminated by vacuum filtration, 3 washes of ice cold wash buffer (Tris-HCl pH 7.4/10 mM, with NaCl 154 mM).

hOx1R [3] = molecular target: T2, hOx1R; assay: Calcium accumulation in cells (FLIPR), hOx1R; format: cell-based; settings: for Ki: inhibition of orexin A induced calcium accumulation, Cheng and Prusoff correction
Summary of the method: as §1

hOx2R [4] = molecular target: T1, hOx2R; assay: Radioligand binding assay, [125I]orexin A, hOx2R; settings: radioligand [125I]orexin A, competition
Protocol: as §2, §3, §4

T1 sequence (O43614 whole entry): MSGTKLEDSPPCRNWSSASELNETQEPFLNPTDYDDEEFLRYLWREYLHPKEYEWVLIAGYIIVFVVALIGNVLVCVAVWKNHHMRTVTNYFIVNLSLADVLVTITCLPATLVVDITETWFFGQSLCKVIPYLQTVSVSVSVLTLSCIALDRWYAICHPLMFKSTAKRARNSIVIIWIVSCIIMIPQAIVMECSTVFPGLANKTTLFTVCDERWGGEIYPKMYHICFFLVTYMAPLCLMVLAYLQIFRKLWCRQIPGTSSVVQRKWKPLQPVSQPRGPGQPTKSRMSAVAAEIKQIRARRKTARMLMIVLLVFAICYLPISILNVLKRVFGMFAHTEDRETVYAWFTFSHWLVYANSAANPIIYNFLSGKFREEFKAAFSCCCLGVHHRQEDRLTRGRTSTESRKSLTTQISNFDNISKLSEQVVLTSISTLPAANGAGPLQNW

| Structure (SMILES) | Ki (hOx2R [1]) [nM] | Kd (hOx1R [2]) [nM] | Ki (hOx1R [3]) [nM] | Kd (hOx2R [4]) [nM] | inhibition at 10 µM (hOx1R [3]; measured at a concentration of 10 μM of compound) [%] |
| --- | --- | --- | --- | --- | --- |
| O=C1N(Cc2ccccc2C(F)(F)F)CCCC12CCN(c1cnc3ccccc3n1)CC2 [Example 23, 9-(quinoxalin-2-yl)-2-(2-(trifluoromethyl)benzyl)-2,9-diazaspiro[5.5]undecan-1-one] | 280 | 4480 | 2740 | 1090 | – |
| O=C1CCCC2(CCN(c3nc4ccccc4o3)CC2)N1Cc1cccc2[nH]ccc12 [Example 42, 1-((1H-indol-4-yl)methyl)-9-(benzo[d]oxazol-2-yl)-1,9-diazaspiro[5.5]undecan-2-one] | 3 | 36 | 20 | 12 | – |
| O=C1N(Cc2ccccc2)CCCC12CCN(c1cnc3ccccc3n1)CC2 [Example 6, 2-benzyl-9-(quinoxalin-2-yl)-2,9-diazaspiro[5.5]undecan-1-one] | 371 | 1310 | 1480 | 300 | – |
| O=C1N(Cc2c[nH]c3ncccc23)CCCC12CCN(c1cnc3ccccc3n1)CC2 [Example 57, 2-((1H-pyrrolo[2,3-b]pyridin-3-yl)methyl)-9-(quinoxalin-2-yl)-2,9-diazaspiro[5.5]undecan-1-one] | 92 | 959 | 1030 | 159 | – |
| O=C1CCCC2(CCN(c3nc4cc(Cl)ccc4o3)CC2)N1Cc1cccc2[nH]ccc12 [Example 136, 1-((1H-indol-4-yl)methyl)-9-(5-chlorobenzo[d]oxazol-2-yl)-1,9-diazaspiro[5.5]undecan-2-one] | 11 | 1410 | 657 | 96 | – |
| O=C1N(Cc2cccc(-c3ccccn3)c2)CCCC12CCN(c1cnc3ccccc3n1)CC2 [Example 54, 2-(3-(pyridin-2-yl)benzyl)-9-(quinoxalin-2-yl)-2,9-diazaspiro[5.5]undecan-1-one] | 47 | 634 | 420 | 175 | – |
| O=C1N(Cc2ccccc2)CCCC12CCN(c1nc3ccccc3[nH]1)CC2 [Example 10, 9-(1H-benzo[d]imidazol-2-yl)-2-benzyl-2,9-diazaspiro[5.5]undecan-1-one] | 1070 | 3360 | – | 439 | 0 |
| O=C1N(Cc2cccc(-c3cccnc3)c2)CCCC12CCN(c1cnc3ccccc3n1)CC2 [Example 5, 2-(3-(pyridin-3-yl)benzyl)-9-(quinoxalin-2-yl)-2,9-diazaspiro[5.5]undecan-1-one] | 22 | 426 | 83 | 98 | – |
| O=C1N(Cc2cccc(C(F)(F)F)c2)CCCC12CCN(c1cnc3ccccc3n1)CC2 [Example 14, 9-(quinoxalin-2-yl)-2-(3-(trifluoromethyl)benzyl)-2,9-diazaspiro[5.5]undecan-1-one] | 112 | 1380 | 948 | 211 | – |
| Cc1cccc(CN2CCCC3(CCN(c4cnc5ccccc5n4)CC3)C2=O)c1 [Example 15, 2-(3-methylbenzyl)-9-(quinoxalin-2-yl)-2,9-diazaspiro[5.5]undecan-1-one] | 155 | 1400 | 1380 | 288 | – |
| O=C1N(Cc2cccc(Cl)c2)CCCC12CCN(c1cnc3ccccc3n1)CC2 [Example 27, 2-(3-chlorobenzyl)-9-(quinoxalin-2-yl)-2,9-diazaspiro[5.5]undecan-1-one] | 84 | 702 | 740 | 169 | – |

The remaining lines, values ahead:

| Ki (hOx2R [1]) [nM] | Kd (hOx1R [2]) [nM] | Ki (hOx1R [3]) [nM] | Kd (hOx2R [4]) [nM] | inhibition at 10 µM (hOx1R [3]; measured at a concentration of 10 μM of compound) [%] | Structure (SMILES) |
| --- | --- | --- | --- | --- | --- |
| 1 | 17 | 13 | 7 | – | O=C1CCCC2(CCN(c3cnc4ccccc4n3)CC2)N1Cc1cccc2[nH]ccc12 [Example 38, 1-((1H-indol-4-yl)methyl)-9-(Quinoxalin-2-yl)-1,9-diazaspiro[5.5]undecan-2-one] |
| 35 | 2350 | 904 | 413 | – | O=C1N(Cc2cccc3c2OCO3)CCCC12CCN(c1cnc3ccccc3n1)CC2 [Example 9, 2-(benzo[d][1,3]dioxol-4-ylmethyl)-9-(quinoxalin-2-yl)-2,9-diazaspiro[5.5]undecan-1-one] |
| – | > 10000 | – | 6100 | – | Cn1c(N2CCC3(CCCN(Cc4cccc5ccccc45)C3=O)CC2)nc2ccccc21 [Example 12, 9-(1-methyl-1H-benzo[d]imidazol-2-yl)-2-(naphthalen-1-ylmethyl)-2,9-diazaspiro[5.5]undecan-1-one] |
| 35 | 776 | 365 | 62 | – | Cc1cc2c(CN3CCCC4(CCN(c5cnc6ccccc6n5)CC4)C3=O)cccc2[nH]1 [Example 13, 2-((2-methyl-1H-indol-4-yl)methyl)-9-(quinoxalin-2-yl)-2,9-diazaspiro[5.5]undecan-1-one] |
| 213 | 3280 | 1760 | 211 | – | O=C1N(Cc2cccc3cccnc23)CCCC12CCN(c1cnc3ccccc3n1)CC2 [Example 21, 2-(quinolin-8-ylmethyl)-9-(quinoxalin-2-yl)-2,9-diazaspiro[5.5]undecan-1-one] |
| – | > 10000 | – | 9870 | – | O=C1N(Cc2ccc3ccccc3c2)CCCC12CCN(c1cnc3ccccc3n1)CC2 [Example 7, 2-(naphthalen-2-ylmethyl)-9-(quinoxalin-2-yl)-2,9-diazaspiro[5.5]undecan-1-one] |
| 16 | 100 | 77 | 36 | – | Cc1ccc(C)c(CN2C(=O)CCCC23CCN(c2cnc4ccccc4n2)CC3)c1 [Example 41, 1-(2,5-dimethylbenzyl)-9-(quinoxalin-2-yl)-1,9-diazaspiro[5.5]undecan-2-one] |
| 30 | 360 | 482 | 34 | – | O=C1N(Cc2cccc3ccccc23)CCCC12CCN(c1cnc3ccccc3n1)CC2 [Example 2, 2-(naphthalen-1-ylmethyl)-9-(quinoxalin-2-yl)-2,9-diazaspiro[5.5]undecan-1-one] |
| 51 | 1320 | 518 | 59 | – | O=C1N(Cc2cccc(-c3ccccc3)c2)CCCC12CCN(c1cnc3ccccc3n1)CC2 [Example 22, 2-(biphenyl-3-ylmethyl)-9-(quinoxalin-2-yl)-2,9-diazaspiro[5.5]undecan-1-one] |
| – | > 10000 | – | 5240 | – | O=C1N(Cc2ccc(C(F)(F)F)cc2)CCCC12CCN(c1cnc3ccccc3n1)CC2 [Example 24, 9-(quinoxalin-2-yl)-2-(4-(trifluoromethyl)benzyl)-2,9-diazaspiro[5.5]undecan-1-one] |
| 46 | 2060 | 1360 | 121 | – | O=C1N(Cc2cccc3c2OCCO3)CCCC12CCN(c1cnc3ccccc3n1)CC2 [Example 4, 2-((2,3-dihydrobenzo[b][1,4]dioxin-5-yl)methyl)-9-(quinoxalin-2-yl)-2,9-diazaspiro[5.5]undecan-1-one] |
| 63 | 630 | 474 | 130 | – | O=C1N(Cc2cccc3[nH]ccc23)CCCC12CCN(c1cnc3ccccc3n1)CC2 [Example 3, 2-((1H-indol-4-yl)methyl)-9-(quinoxalin-2-yl)-2,9-diazaspiro[5.5]undecan-1-one] |
| 88 | 4320 | 1560 | 181 | – | Cc1onc(-c2ccccc2)c1CN1CCCC2(CCN(c3cnc4ccccc4n3)CC2)C1=O [Example 34, 2-((5-methyl-3-phenylisoxazol-4-yl)methyl)-9-(quinoxalin-2-yl)-2,9-diazaspiro[5.5]undecan-1-one] |
